Source: US8207172B2 (Bayer Intellectual Property GmbH, priority 2004, dated 2012)
Structures can show the parent of a compound that is named as a salt.

Tests used:
[1] = system: BT474 (human breast carcinoma); assay: In vitro tumor cell proliferation assay (Cell Titer-Glo luminescent cell viability), BT474; type: cell-based; conditions: BT-474, 72 h, BT474 cells, 72 hours of drug exposure, ATP luminescence readout, read-out: IC50, anti-proliferative activity (inhibition of cell proliferation)
Outline: (§1)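 IC50 values reflect ATP-based luminescence (CellTiter-Glo) after 72 h compound exposure at 37°C. Both lines, A431 and BT474, were plated in RPMI with 10% FBS and received serial dilutions ranging from 100 μM to 64 pM final at 0.1% DMSO.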

[2] = system: A431 cells (human epidermoid carcinoma); assay: In vitro tumor cell proliferation assay (Cell Titer-Glo luminescent cell viability), A431; type: cell-based; conditions: A-431, 72 h, 72 hours of drug exposure, ATP luminescence readout, read-out: IC50, anti-proliferative activity (inhibition of cell proliferation)
Outline: as §1

| SMILES | IC50 [1] [µM] | IC50 [2] [µM] |
| --- | --- | --- |
| CN(C)[C@@H]1CCN(CC(=O)N2CCC(Cn3cc4c(n3)CCc3c-4sc4ncnc(Nc5ccc(OCc6cccc(F)c6)c(Cl)c5)c34)CC2)C1 [Example 234, N-{3-chloro-4-[(3-fluorobenzyl)oxy]phenyl}-2-[(1-{[(3R)-3-(dimethylamino)pyrrolidin-1-yl]acetyl}piperidin-4-yl)methyl]-4,5-dihydro-2H-pyrimido[5′,4′:4,5]thieno[2,3-e]indazol-6-amine trifluoroacetate] | ≤ 5 | ≤ 50 |
| CCCn1cc2c(n1)CCc1c-2sc2ncnc(Nc3ccc(OCc4cccc(F)c4)c(Cl)c3)c12 [Example 130, N-{3-chloro-4-[(3-fluorobenzyl)oxy]phenyl}-2-propyl-4,5-dihydro-2H-pyrimido[5′,4′:4,5]thieno[2,3-e]indazol-6-amine trifluoroacetate] | ≤ 5 | ≤ 50 |
| O=C(Cn1ncc2c1CCc1c-2sc2ncnc(Nc3ccc(OCc4cccc(F)c4)c(Cl)c3)c12)N1CC[C@@H](O)C1 [Example 206, (3R)-1-{[6-({3-chloro-4-[(3-fluorobenzyl)oxy]phenyl}amino)-4,5-dihydro-3H-pyrimido[5′,4′:4,5]thieno[2,3-e]indazol-3-yl]acetyl}pyrrolidin-3-ol] | ≤ 1 | ≤ 5 |
| CN(C)C1CCN(C(=O)Cn2ncc3c2CCc2c-3sc3ncnc(Nc4ccc(OCc5cccc(F)c5)c(Cl)c4)c23)C1 (stereo not shown) [Example 215, N-{3-chloro-4-[(3-fluorobenzyl)oxy]phenyl}-3-{2-[3-(dimethylamino)pyrrolidin-1-yl]-2-oxoethyl}-4,5-dihydro-3H-pyrimido[5′,4′:4,5]thieno[2,3-e]indazol-6-amine] | ≤ 1 | ≤ 5 |
| CNC[C@@H](O)Cn1ncc2c1CCc1c-2sc2ncnc(Nc3ccc(OCc4cccc(F)c4)c(Cl)c3)c12 [Example 166, (2R)-1-[6-({3-chloro-4-[(3-fluorobenzyl)oxy]phenyl}amino)-4,5-dihydro-3H-pyrimido[5′,4′:4,5]thieno[2,3-e]indazol-3-yl]-3-(methylamino)propan-2-ol trifluoroacetate (salt)] | ≤ 1 | ≤ 50 |
| OC(CN1CCOCC1)Cn1cc2c(n1)CCc1c-2sc2ncnc(Nc3ccc(OCc4cccc(F)c4)c(Cl)c3)c12 (stereo not shown) [Example 135, 1-[6-({3-chloro-4-[(3-fluorobenzyl)oxy]phenyl}amino)-4,5-dihydro-2H-pyrimido[5′,4′:4,5]thieno[2,3-e]indazol-2-yl]-3-morpholin-4-ylpropan-2-ol] | ≤ 1 | ≤ 50 |
| CCNCCn1cc2c(n1)CCc1c-2sc2ncnc(Nc3ccc(OCc4ccccn4)c(Cl)c3)c12 [Example 108, N-[3-chloro-4-(pyridin-2-ylmethoxy)phenyl]-2-[2-(ethylamino)ethyl]-4,5-dihydro-2H-pyrimido[5′,4′:4,5]thieno[2,3-e]indazol-6-amine] | ≤ 1 | ≤ 50 |
| Clc1cc(Nc2ncnc3sc4c(c23)CCc2nn(CCN3CCOCC3)cc2-4)ccc1OCc1ccccn1 [Example 106, N-[3-chloro-4-(pyridin-2-ylmethoxy)phenyl]-2-(2-morpholin-4-ylethyl)-4,5-dihydro-2H-pyrimido[5′,4′:4,5]thieno[2,3-e]indazol-6-amine] | ≤ 1 | ≤ 50 |
| CNC(=O)Cn1ncc2c1CCc1c-2sc2ncnc(Nc3ccc(OCc4cccc(F)c4)c(Cl)c3)c12 [Example 196, 2-[6-({3-chloro-4-[(3-fluorobenzyl)oxy]phenyl}amino)-4,5-dihydro-3H-pyrimido[5′,4′:4,5]thieno[2,3-e]indazol-3-yl]-N-methylacetamide] | ≤ 1 | ≤ 50 |
| CC(C)NC[C@@H](O)Cn1ncc2c1CCc1c-2sc2ncnc(Nc3ccc(OCc4cccc(F)c4)c(Cl)c3)c12 [Example 163, (2R)-1-[6-({3-chloro-4-[(3-fluorobenzyl)oxy]phenyl}amino)-4,5-dihydro-3H-pyrimido[5′,4′:4,5]thieno[2,3-e]indazol-3-yl]-3-(isopropylamino)propan-2-ol trifluoroacetate (salt)] | ≤ 5 | ≤ 50 |
| Fc1cccc(COc2ccc(Nc3ncnc4sc5c(c34)CCc3nn(CCCl)cc3-5)cc2Cl)c1 [Example 79, 2-(2-chloroethyl)-N-{3-chloro-4-[(3-fluorobenzyl)oxy]phenyl}-4,5-dihydro-2H-pyrimido[5′,4′:4,5]thieno[2,3-e]indazol-6-amine] | ≤ 1 | ≤ 50 |
| CN1CCN(CCn2cc3c(n2)CCc2c-3sc3ncnc(Nc4ccc5c(cnn5Cc5cccc(F)c5)c4)c23)CC1 [Example 277] | ≤ 1 | ≤ 5 |
| CS(=O)(=O)OCCn1cc2c(n1)CCc1c-2sc2ncnc(Nc3ccc4c(cnn4Cc4cccc(F)c4)c3)c12 [Example 276, 2-(6-{[1-(3-fluorobenzyl)-1H-indazol-5-yl]amino}-4,5-dihydro-2H-pyrimido[5′,4′:4,5]thieno[2,3-e]indazol-2-yl)ethyl methanesulfonate] | ≤ 1 | ≤ 5 |
| CN(C)C(=O)Cn1cc2c(n1)CCc1c-2sc2ncnc(Nc3ccc(OCc4cccc(F)c4)c(Cl)c3)c12 [Example 184, 2-[6-({3-chloro-4-[(3-fluorobenzyl)oxy]phenyl}amino)-4,5-dihydro-2H-pyrimido[5′,4′:4,5]thieno[2,3-e]indazol-2-yl]-N,N-dimethylacetamide] | ≤ 1 | ≤ 5 |
| OCCn1cc2c(n1)CCc1c-2sc2ncnc(Nc3ccc4c(cnn4Cc4cccc(F)c4)c3)c12 [Example 275, 2-(6-{[1-(3-fluorobenzyl)-1H-indazol-5-yl]amino}-4,5-dihydro-2H-pyrimido[5′,4′:4,5]thieno[2,3-e]indazol-2-yl)ethanol] | ≤ 1 | ≤ 5 |
| c1ccc(Cn2ncc3cc(Nc4ncnc5sc6c(c45)CCc4nn(CCN5CCOCC5)cc4-6)ccc32)cc1 [Example 304, N-(1-benzyl-1H-indazol-5-yl)-2-(2-morpholin-4-ylethyl)-4,5-dihydro-2H-pyrimido[5′,4′:4,5]thieno[2,3-e]indazol-6-amine] | ≤ 1 | ≤ 50 |
| O[C@H]1CCN(CCn2cc3c(n2)CCc2c-3sc3ncnc(Nc4ccc(F)c(Cl)c4)c23)C1 [Example 30, (3S)-1-(2-{6-[(3-chloro-4-fluorophenyl)amino]-4,5-dihydro-2H-pyrimido[5′,4′:4,5]thieno[2,3-e]indazol-2-yl}ethyl)pyrrolidin-3-ol] | ≤ 5 | ≤ 5 |
| CN1CCC(Cn2cc3c(n2)CCc2c-3sc3ncnc(Nc4ccc(OCc5cccc(F)c5)c(Cl)c4)c23)CC1 [Example 236, N-{3-chloro-4-[(3-fluorobenzyl)oxy]phenyl}-2-[(1-methylpiperidin-4-yl)methyl]-4,5-dihydro-2H-pyrimido[5′,4′:4,5]thieno-[2,3-e]indazol-6-amine] | ≤ 1 | ≤ 5 |
| O=C(O)Cn1ncc2c1CCc1c-2sc2ncnc(Nc3ccc(OCc4cccc(F)c4)c(Cl)c3)c12 [Example 191, [6-({3-chloro-4-[(3-fluorobenzyl)oxy]phenyl}amino)-4,5-dihydro-3H-pyrimido[5′,4′:4,5]thieno[2,3-e]indazol-3-yl]acetic acid] | ≤ 50 | ≤ 50 |
| Fc1cccc(COc2ccc(Nc3ncnc4sc5c(c34)CCc3nn(CCN4CCOCC4)cc3-5)cc2Cl)c1 [Example 63, N-{3-chloro-4-[(3-fluorobenzyl)oxy]phenyl}-2-(2-morpholin-4-ylethyl)-4,5-dihydro-2H-pyrimido[5′,4′:4,5]thieno[2,3-e]indazol-6-amine] | ≤ 1 | ≤ 5 |
| O=C(Cn1ncc2c1CCc1c-2sc2ncnc(Nc3ccc(OCc4cccc(F)c4)c(Cl)c3)c12)N1CCC(O)CC1 [Example 213, 1-{[6-({3-chloro-4-[(3-fluorobenzyl)oxy]phenyl}amino)-4,5-dihydro-3H-pyrimido[5′,4′:4,5]thieno[2,3-e]indazol-3-yl]acetyl}piperidin-4-ol] | ≤ 1 | ≤ 5 |
| Clc1cc(Nc2ncnc3sc4c(c23)CCc2c-4cnn2CCN2CCOCC2)ccc1OCc1ccccn1 [Example 111, N-[3-chloro-4-(pyridin-2-ylmethoxy)phenyl]-3-(2-morpholin-4-ylethyl)-4,5-dihydro-3H-pyrimido[5′,4′:4,5]thieno[2,3-e]indazol-6-amine] | ≤ 1 | ≤ 50 |
| CN(C)[C@@H]1CCN(C(=O)Cn2cc3c(n2)CCc2c-3sc3ncnc(Nc4ccc(OCc5cccc(F)c5)c(Cl)c4)c23)C1 [Example 181, N-{3-chloro-4-[(3-fluorobenzyl)oxy]phenyl}-2-{2-[3-(dimethylamino)pyrrolidin-1-yl]-2-oxoethyl}-4,5-dihydro-2H-pyrimido[5′,4′:4,5]thieno[2,3-e]indazol-6-amine] | ≤ 1 | ≤ 5 |
| COc1ccc(Nc2ncnc3sc4c(c23)CCc2nn(CCN3CCN(C)CC3)cc2-4)cc1Cl [Example 52, N-(3-chloro-4-methoxyphenyl)-2-[2-(4-methylpiperazin-1-yl)ethyl]-4,5-dihydro-2H-pyrimido[5′,4′:4,5]thieno[2,3-e]indazol-6-amine] | ≤ 5 | ≤ 50 |
| CCN1CCN(CCn2cc3c(n2)CCc2c-3sc3ncnc(Nc4ccc(OCc5cccc(C)n5)c(Cl)c4)c23)CC1 [Example 118, N-{3-chloro-4-[(6-methylpyridin-2-yl)methoxy]phenyl}-2-[2-(4-ethylpiperazin-1-yl)ethyl]-4,5-dihydro-2H-pyrimido[5′,4′:4,5]thieno[2,3-e]indazol-6-amine] | ≤ 5 | ≤ 50 |
| CCCc1nccn1CCn1cc2c(n1)CCc1c-2sc2ncnc(Nc3ccc(F)c(Cl)c3)c12 [Example 41, N-(3-chloro-4-fluorophenyl)-2-[2-(2-propyl-1H-imidazol-1-yl)ethyl]-4,5-dihydro-2H-pyrimido[5′,4′:4,5]thieno[2,3-e]indazol-6-amine] | ≤ 5 | ≤ 5 |
